Assay results: PMC8835475, “Salviolone from Salvia miltiorrhiza Roots Impairs Cell Cycle Progression, Colony Formation, and Metalloproteinase-2 Activity in A375 Melanoma Cells: Involvement of P21(Cip1/Waf1) Expression and STAT3 Phosphorylation” (International Journal of Molecular Sciences, 2022)

Experiments:
Assay type in all cases: cell-based, human
[1] = system: pERK1/2; assay: Immunoblot of pERK1/2 in A375 cells; conditions: A375, 20 µM, 72 h; declined in control
Procedure: (§1) A375 cells were seeded in 6 cm Petri dishes (190 300 cell/dish) and treated with different compounds at 10 or 20 μM. After 48- or 72-h treatment, the cells were scraped using warm 1× sample buffer (2% SDS, 10% glycerol, 50 mM Tris-HCl, 1.75% β-mercaptoethanol, and bromophenol blue) and boiled at 99 °C for 10 min. Total protein extracts were kept at −80 °C until use.
(§2) Protein extracts were analyzed with a 7.5 or 10% polyacrylamide SDS-PAGE and transferred to a polyvinylidene difluoride membrane (PVDF, Thermo Fisher Scientific, Waltham, MA, USA). The membranes were blocked at RT for 1 h with TBST buffer (10 mM Tris-HCl pH 7.5, 100 mM NaCl, 0.1% Tween20) containing 4% Milk (Formulat). Then, they were incubated on a shaker, overnight (ON) at 4 °C, with 5% BSA solution containing primary antibodies against p-Tyr705-STAT3 (#9145, 1:1000), pRb (#8516, 1:2000), pERK (#4370, 1:1000), pAkt (#4060, 1:2000), pSer15-P53 (#9286, 1:2000) (Cell Signaling Technology, Danvers, […], USA), Akt (GTX121937, 1:3000), ERK (GTX134452, 1:6000), Cyclin A2 (GTX-103042, 1:3000), p-Thr160Cdk2 (GTX-133862, 1:3000), p21 (GTX-629543, 1:3000) (Genetex, Alton Pkwj Irvine, CA, USA), p53 (Sc-263, 1:1000), STAT3 (Sc-482, 1:1000), and p-Ser727-STAT3 (Sc-136193, 1:1000) (Santa Cruz Biotechnology, Dallas, TX, USA). The membranes were washed three times with TBST buffer for 30 min and then incubated for 1 h with a horseradish-peroxidase-conjugated secondary antibody (anti-rabbit 1:6000, Genetex), (anti-mouse, 1:4000, Cell Signaling Technology, Danvers, […], USA). They were washed another three times for 30 min with TBST buffer. All protein extracts were normalized with a β-actin protein antibody (GTX-124214, 1:10,000; Genetex, Alton Pkwj Irvine, CA, USA). Immuno-detection was carried out with an ECL kit (GE-Healthcare, Little Chalfont, UK), and the chemiluminescence signals were detected with ChemiDoc (Bio-Rad, Hercules, CA, USA).

[2] = system: A375 melanoma cells; assay: Soft agar colony formation assay; conditions: A375, 5 and 10 µM, 21-day culture
Procedure: Before seeding, 6-well plates were prepared with soft agar, as follows: the bottom layer was filled with 1% low-gelling temperature agarose and 2X DMEM, supplemented with 20% FBS and 2% Antibiotic Antimycotic Solution (Gibco, BRL Invitrogen Corp., Carlsbad, CA, USA). After 30 min, cells (5000 cell/well) were suspended in 0.6% agarose and 2X DMEM supplemented with 20% FBS and 2% Antibiotic Antimycotic Solution (Gibco, BRL Invitrogen Corp., Carlsbad, CA, USA) and placed over the 0.5% agarose layer. Then, either cryptotanshinone (4) or salviolone (7) at 5–10 μM was added directly into each well and 100 μL of fresh media was added twice a week for 3 weeks. The semi-solid cultures were performed in triplicate and images captured.

[3] = system: pSer15-P53 (pP53); assay: Immunoblot of pSer15-P53 in A375 cells; conditions: A375, 20 µM, vs untreated
Procedure: as §1
(§3) Protein extracts were analyzed with a 7.5 or 10% polyacrylamide SDS-PAGE and transferred to a polyvinylidene difluoride membrane (PVDF, Thermo Fisher Scientific, Waltham, MA, USA). The membranes were blocked at RT for 1 h with TBST buffer (10 mM Tris-HCl pH 7.5, 100 mM NaCl, 0.1% Tween20) containing 4% Milk (Formulat). […] Immuno-detection was carried out with an ECL kit (GE-Healthcare, Little Chalfont, UK), and the chemiluminescence signals were detected with ChemiDoc (Bio-Rad, Hercules, CA, USA).

[4] = system: pAkt; assay: Immunoblot of pAkt in A375 cells; conditions: A375, 20 µM, 72 h; declined in control
Procedure: as §1, §2

[5] = system: MMP2 gelatinase activity; assay: Gelatin zymography of MMP2 activity in A375 cells; conditions: A375, 10 and 20 µM, gel zymography
Procedure: A gel zymography assay can measure the ability of matrix metalloproteinases (MMPs) to digest their substrate gelatin present in the gel. Thus, the zymographic approach allows sensitive and quantifiable analysis of the activity of MMPs that can be recognized by their molecular weight. […] Both compounds 7 and 4 at 10 and 20 µM inhibited MMP2 gelatinase activity in the A375 melanoma cell line (Figure 6B).
A375 cells were cultured in the presence of 10 or 20 µM cryptotanshinone (4), salviolone (7), or 1 µM onconase (provided by Prof. G. Gotte), as a positive control, for 48 h and then they were serum starved for 24 h. The conditioned medium was collected and 10× concentrated with an Amicon Ultra-2 Centrifugal filter unit (Merck-Millipore, Milan, Italy). Protein concentrations were determined with Coomassie (Thermo Fisher Scientific, Waltham, MA, USA) and samples treated with a non-reducing sample buffer. To separate proteins, a 7.5% SDS-PAGE was performed. The gel contained 4 mg/mL of gelatin (Sigma-Aldrich, Milan, Italy) and was washed with 50 mM Tris-HCl pH 7.5, 5 mM CaCl2, and 1 μM ZnCl2 supplemented with 2.5% Triton X-100 (Serva Electrophoresis, Heidelberg, Germany). […] The gel was stained with 0.5% Coomassie Brilliant Blue R-250 in 20% ethanol/10% acetic acid, and the gelatinase activity was detected by evaluating the presence and intensity of clear bands on the blue background.

[6] = system: pCdk2; assay: Immunoblot of pCdk2 in A375 cells; conditions: A375, 20 µM, 48 or 72 h
Procedure: as §1, §3

[7] = system: pRb; assay: Immunoblot of pRb in A375 cells; conditions: A375, 20 µM, 48 or 72 h
Procedure: as §1, §3

Structure (SMILES)	pERK1/2 expression level [1]	number and dimension of colonies formed on soft agar [2]	pSer15-P53 (pP53) expression / P53 phosphorylation level [3]	pAkt expression level [4]	MMP2 gelatinase activity [5]	pCdk2 (active form of Cdk2) expression level [6]	phosphorylation of Rb (pRb) expression level [7]
C[C@H]1COC2=C1C(=O)C(=O)c1c2ccc2c1CCCC2(C)C [Compound 4, cryptotanshinone]	remained high	decreased	no significant increase	remained high	inhibited	slightly reduced	slightly reduced
Cc1cc2ccc3c(c2cc(O)c1=O)CCCC3(C)C [Compound 7, salviolone]	remained high	decreased	higher	remained high	inhibited	strongly reduced	strongly reduced
